Experimental data from patent publication US20190328825A1, “METHODS FOR TREATING AUTISM SPECTRUM DISORDER AND ASSOCIATED SYMPTOMS” (Arizona Board of Regents on behalf of Arizona State …, priority 2015, published 2019).

How the values were obtained:
children with ASD [1] = assay: Toleration of study medications / adverse effects
Excerpt: The participants were given oral vancomycin (a non-absorbable broad spectrum antibiotic that stays in the GI tract) for 2 weeks to reduce levels of pathogenic bacteria, and then 1 day of low-volume colonoscopy prep MoviPrep® (a drink that flushes the bowels, to remove most remaining gut bacteria and vancomycin) to clear the residual vancomycin and feces. The vancomycin was intended to kill off harmful bacteria, the fasting was intended to remove any remaining bacteria and to minimize other luminal fecal material, and the colon cleanse helped remove the vancomycin and cleanse the lower GI Tract.
The rectal dose was administered under the direct supervision of the study physician, and the first oral dose was similarly administered in the presence of the physician. Participants were randomly assigned to either the oral or rectal route of administration. If one administration route was not tolerated, or if the family preferred the other route, then participants had the option of trying the other route. For the participants with initial oral dose, a lower oral maintenance dose (2.5×10^9 CFU) was followed for 8 weeks right after the major oral initial dose. Whereas, the major rectal initial dose was followed by waiting period of 1 week followed by a lower oral maintenance dose (2.5×10^9 CFU) for 7 weeks. The maintenance SHGM dose were self-administered orally every day up to week 10. After treatment was stopped, participants were monitored for another 8 weeks.
Prilosec (omeprazole) was administered daily to reduce stomach acid and thereby increase viability of the MTT, starting on the 12th day of oral vancomycin treatment and continuing until the end of the maintenance dose.

children with ASD [2] = assay: Complete Blood Count / blood chemistry panel; type: in vivo, human
Excerpt: The following minor changes were observed. There was a 5% decrease in potassium (p=0.01) from beginning to end of treatment, but all levels remain in the normal range. After the vancomycin (2nd week of study), there was a 8% increase in platelets (p=0.03). Four subjects had elevated levels at start, and only 2 had elevated levels after vancomycin. There was a 26% drop in blood urea nitrogen (BUN) (p=0.002), but all stayed in normal range. There was a 6% increase in albumin to globulin (A/G) ratio (p=0.03), with 1 slightly elevated. There was a 17% increase in aspartate amino transferase (AST) (p=0.01), but all remained in normal range. There was a 24% increase in alanine amino transferase (ALT) (p=0.003), where 1 remained elevated and 2 became slightly elevated. […] Slight changes (1-2%) in red blood cell indices (Mean corpuscular volume (MCV), Mean corpuscular hemoglobin (MCH), Mean corpuscular hemoglobin concentration (MCHC), and Red cell distribution width (RDW)) were observed.

[3] = human, in vivo, 40 mg/kg per day

COc1ccc2[nH]c([S+]([O-])Cc3ncc(C)c(OC)c3C)nc2c1 (stereo not drawn) [Prilosec, omeprazole]
toleration of study medication (children with ASD [1]; in vivo): generally well-tolerated

CN[C@H](CC(C)C)C(=O)N[C@H]1C(=O)N[C@@H](CC(N)=O)C(=O)N[C@H]2C(=O)N[C@H]3C(=O)N[C@H](C(=O)N[C@H](C(=O)O)c4cc(O)cc(O)c4-c4cc3ccc4O)[C@H](O)c3ccc(c(Cl)c3)Oc3cc2cc(c3O[C@@H]2O[C@H](CO)[C@@H](O)[C@H](O)[C@H]2O[C@H]2C[C@](C)(N)[C@H](O)[C@H](C)O2)Oc2ccc(cc2Cl)[C@H]1O [vancomycin]
duration of behavioral reaction in most cases (children with ASD [1]; [3]): 1 to 3 days | onset of behavioral reaction after start of vancomycin (children with ASD [1]; [3]): 1 to 4 days | severity of behavioral symptoms (children with ASD [1]; hyperactivity, tantrumming/aggression): mild to moderate | duration of behavioral symptoms in 1 participant (children with ASD [1]; longest case): 3 weeks | children developing rash (children with ASD [1]; oral vancomycin with natural orange flavor, 18 children): One and one | adverse effects overall (children with ASD [1]; primarily mild to moderate hyperactivity and tantrums/aggression): only temporary adverse effects | cases of increased hyperactivity (children with ASD [1]; temporary, start of vancomycin): 7 | cases of increased tantrums/aggression (children with ASD [1]; temporary, start of vancomycin): 5 | platelets, BUN, A/G, AST, ALT (children with ASD [2]; 3rd and 4th tests): returned to similar to baseline | increase in alanine amino transferase (ALT) (children with ASD [2]; after the vancomycin): 24% | increase in albumin to globulin (A/G) ratio (children with ASD [2]; after the vancomycin): 6% | increase in platelets (children with ASD [2]; after the vancomycin (2nd week of study)): 8% | increase in aspartate amino transferase (AST) (children with ASD [2]; after the vancomycin, all remained in normal range): 17% | drop in blood urea nitrogen (BUN) (children with ASD [2]; after the vancomycin, all stayed in normal range): 26%
